Measured values taken from patent US20120077836A1, “METHODS OF ADMINISTERING (4AR,10AR)-1-N-PROPYL-1,2,3,4,4A,5,10,10A-OCTAHYDROBENZO [G] QUINOLINE-6,7-DIOL AND RELATED COMPOUNDS ACROSS THE ORAL MUCOSA, THE NASAL MUCOSA OR THE SKIN AND PHARMACEUTICAL COMPOSITIONS THEREOF” (priority 2009, published 2012).

Columns and labels:
[1] = system: MPTP/AMPT mouse model; test: Superiority model, hypomotility in the MPTP/AMPT mouse model; format: in vivo
Method: MPTP (1-methyl-4-phenyl-1,2,3,6-tetrahydropyridine) is a neurotoxin that causes permanent symptoms of Parkinson's disease by killing certain neurons in the substantia nigra of the brain. It is used to study the disease in monkeys and mice. […] Various compounds (all dosed subcutaneously) were tested for their ability to reverse the motility deficits produced in this model.

[2] = system: rats with unilateral 6-OHDA lesions; test: D1/D2 dissection, rotation response in rats with unilateral 6-OHDA lesions; format: in vivo, rat; settings: 6-OHDA rats; for MED (minimum effective dose to induce rotation) / MEDNemonapride (MED to overcome Nemonapride block): dosed SC; for MEDNemonapride (MED to overcome Nemonapride block): * = rotations could not be blocked by SCH23390
Description: Rats weighing 200-250 g were subjected to unilateral 6-OHDA lesions. […] Nemonapride is a D2 antagonist that blocks the D2 receptors, therefore any observed rotations would be dependent upon activity at the D1 receptors.

[3] = system: MPTP treated marmosets; test: Anti-parkinsonian effects in MPTP-treated common marmosets; format: in vivo, common marmoset; set-up: disability score (120 min) / disability score (180 min) / disability score (240 min) / disability score (300 min) / disability score (360 min) / disability score (420 min) / disability score (60 min): scale not given here
Method: The experiments were conducted using 6 MPTP treated marmosets (2.0 mg/kg daily for up to 5 consecutive days dissolved in sterile 0.9% saline solution). All the animals had previously been treated with L-DOPA (12.5 mg/kg p.o., plus carbidopa 12.5 mg/kg p.o.) administered daily for up to 30 days in order to induce dyskinesia. […] Domperidone was administered 60 min before any of the test compounds. Domperidone is an antidopaminergic drug that suppresses nausea and vomiting. Locomotor activity was assessed using test cages that are comprised of 8 photo-electric switches comprised of 8 infra-red beams which are strategically placed in the cage and interruption of a beam is recorded as one count. […] The assessment of motor disability was performed by a trained observer blinded to the treatment.
The dose chosen for this challenge is at the top of the dose response curve for this drug.

[4] = system: rats with unilateral 6-OHDA lesions; settings: rat, in vivo, sc
[5] = target: T1, human recombinant D1 receptor (Homo sapiens, UniProt P21728); test: D1 cAMP assay; format: cell-based; settings: read-out: intrinsic activity (efficacy)
T1 construct: expressed in transfected cells
Method: The ability of the compounds to either stimulate or inhibit the D1 receptor mediated cAMP formation in CHO cells stably expressing the human recombinant D1 receptor was measured as follows. Cells were seeded in 96-well plates at a concentration of 11000 cells/well 3 days prior to the experiment.

[6] = system: rats with unilateral 6-OHDA lesions; test: Rotation response in 6-OHDA rats after buccal delivery; format: in vivo, rat
[7] = system: reserpinesed rats; test: Reversal of reserpine-induced hypomotility in rats; format: in vivo, rat
Method: Rats weighing ca. 200 g were treated with reserpine (5 mg/kg subcutaneously as a solution in 20% aqueous solutol for which pH was adjusted to 4 with methanesulfonic acid). […] Group 1: treated with 20% ethanol in 0.7% aqueous sodium chloride subcutaneously.

[8] = target: T2, human D2 receptor (Homo sapiens, UniProt P14416); test: D2 cAMP assay; format: cell-based; settings: read-out: intrinsic activity (efficacy)
T2 construct: expressed in transfected cells; host or cells: CHO cells
Method: The ability of the compounds to either stimulate or inhibit the D2 receptor mediated inhibition of cAMP formation in CHO cells transfected with the human D2 receptor was measured as follows. Cells were seeded in 96 well plates at a concentration of 8000 cells/well 3 days prior to the experiment. On the day of the experiment the cells were washed once in preheated G buffer (1 mM MgCl2, 0.9 mM CaCl2, 1 mM IBMX in PBS) and the assay was initiated by addition of 100 micro-1 of a mixture of 1 micro-M quinpirole, 10 microM forskolin and test compound in G buffer (antagonism) or 10 micro-M forskolin and test compound in G buffer (agonism).

[9] = system: 6-OHDA rats; test: Reversal of L-DOPA-induced dyskinesias in 6-OHDA rats (AIMS); format: in vivo, rat; settings: after 7 days L-DOPA/Benserazide priming; once daily days 1-10: L-DOPA/Benserazide 6/15 mg/kg SC; compound 10 0.0013 mg/kg SC; pramipexole […] SC
Description: Animals were observed on Days 1, 3 and 5 and AIMS were scored. The day 5 scores were then used to separate the animals into three groups of 6 animals each. Group 1 continued with daily L-DOPA treatment. […] Treatment continued daily for 10 days and the amount of dyskinesia was scored on days 1, 5, 9 and 10.

[10] = Table 4e direct comparison, AMPT 250 mg/kg SC, apomorphine 1 mg/kg SC, pramipexole 1 mg/kg SC, compound 10 0.030 mg/kg SC, controls: vehicle 509, AMPT/vehicle 2

T1 sequence (P21728 whole entry): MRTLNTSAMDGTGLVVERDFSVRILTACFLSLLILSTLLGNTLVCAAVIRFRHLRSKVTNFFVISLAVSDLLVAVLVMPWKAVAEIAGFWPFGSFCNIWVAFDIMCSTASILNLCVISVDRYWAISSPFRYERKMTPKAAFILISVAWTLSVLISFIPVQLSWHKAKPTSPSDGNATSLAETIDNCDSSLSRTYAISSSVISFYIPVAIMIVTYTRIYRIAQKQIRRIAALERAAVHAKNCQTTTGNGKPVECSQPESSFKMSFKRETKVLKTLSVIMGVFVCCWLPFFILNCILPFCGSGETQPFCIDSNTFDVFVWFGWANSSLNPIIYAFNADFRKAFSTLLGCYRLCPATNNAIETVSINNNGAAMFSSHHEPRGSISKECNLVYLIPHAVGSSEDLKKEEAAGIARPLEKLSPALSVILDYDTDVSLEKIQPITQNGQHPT
T2 sequence (P14416 whole entry): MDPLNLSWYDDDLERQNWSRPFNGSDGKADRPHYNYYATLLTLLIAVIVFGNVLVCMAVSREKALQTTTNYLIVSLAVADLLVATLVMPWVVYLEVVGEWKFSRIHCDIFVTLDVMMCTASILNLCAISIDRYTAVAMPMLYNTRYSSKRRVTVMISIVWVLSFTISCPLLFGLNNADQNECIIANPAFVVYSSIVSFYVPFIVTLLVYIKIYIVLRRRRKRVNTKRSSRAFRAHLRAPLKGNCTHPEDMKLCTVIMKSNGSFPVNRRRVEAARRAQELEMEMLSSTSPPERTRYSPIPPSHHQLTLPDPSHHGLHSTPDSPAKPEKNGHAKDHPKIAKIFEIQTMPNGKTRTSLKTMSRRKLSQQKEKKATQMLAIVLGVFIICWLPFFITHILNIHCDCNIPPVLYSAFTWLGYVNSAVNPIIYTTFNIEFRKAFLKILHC

CC(C)C[C@H]1C(=O)N2CCC[C@H]2[C@]2(O)O[C@](NC(=O)[C@@H]3C=C4c5cccc6[nH]c(Br)c(c56)C[C@H]4N(C)C3)(C(C)C)C(=O)N12 [bromocriptine]
activity count (0.5-1.5 h) ([1]; Table 4d, AMPT 250 mg/kg SC, 1 mg/kg SC, controls: vehicle 336, AMPT/vehicle 16): 25 | activity count (0.5-1.5 h) ([1]; Table 4d, AMPT 250 mg/kg SC, 5 mg/kg SC): 17 | activity count (0.5-1.5 h) ([1]; Table 4d, AMPT 250 mg/kg SC, 10 mg/kg SC): 36

CCCN(CCc1cccs1)[C@H]1CCc2c(O)cccc2C1 [rotigotine]
D1 component in rotation model ([2]; SC): could not be observed | MED (minimum effective dose to induce rotation) [2]: 0.030 mg/kg | MEDNemonapride (MED to overcome Nemonapride block) [2]: 0.30 mg/kg

N[C@@H](Cc1ccc(O)c(O)c1)C(=O)O [L-DOPA, reference compound]
disability score (60 min) ([3]; 12.5 mg/kg PO): 10.0 | disability score (120 min) ([3]; 12.5 mg/kg PO): 2.0 | disability score (180 min) ([3]; 12.5 mg/kg PO): 1.8 | disability score (240 min) ([3]; 12.5 mg/kg PO): 3.2 | disability score (300 min) ([3]; 12.5 mg/kg PO): 5.0 | disability score (360 min) ([3]; 12.5 mg/kg PO): 9.7 | disability score (420 min) ([3]; 12.5 mg/kg PO): 11.0 | effect on locomotor activity and motor disability ([3]; L-DOPA 12.5 mg/kg p.o., compound 10 0.001 or 0.01 mg/kg SC): increased locomotor activity and reversed motor disability | dyskinesia score (AIMS) [4]: about 65

CN1CCc2cccc3c2[C@H]1Cc1ccc(O)c(O)c1-3 [apomorphine, reference compound]
Emax [5]: 86% | mean number of rotations over 3 h ([6]; apomorphine 0.1 mg/kg SC, compound 10 0.01 mg/kg buccally): 1123 | induction of rotation ([6]; apomorphine subcutaneous, compound 10 buccal): induced rotations | reversal of reserpine-induced hypomotility ([7]; administered subcutaneously): reversed the reserpine-induced hypomotility | activity count ([7]; reserpine 5 mg/kg SC 23-24 h before, apomorphine 1 mg/kg SC, compound 10 0.01 mg/kg SC, over 3 hours, controls: vehicle 486, reserpine/vehicle 17): 440 | reversal of motility deficits ([1]; MPTP/AMPT mice, all dosed subcutaneously): restored locomotion in the mice in a dose-dependent manner | activity count (0.5-1.5 h) ([1]; Table 4b, AMPT 250 mg/kg SC at -1.5 h, 1.0 mg/kg SC, controls: vehicle 694, AMPT/vehicle 1): 912 | activity count (0.5-1.5 h) [1, 10]: 904 | Emax [8]: 100% | MED (minimum effective dose to induce rotation) [2]: 0.010 mg/kg | MEDNemonapride (MED to overcome Nemonapride block) [2]: 0.030 mg/kg | dyskinesia score (AIMS) [4]: about 65

CCCN[C@H]1CCc2nc(N)sc2C1 [pramipexole]
activity count (0.5-1.5 h) [1, 10]: 176 | mean AIM score (days 1, 5, 9, 10) [9]: 58 | MED (minimum effective dose to induce rotation) [2]: 0.1 mg/kg | MEDNemonapride (MED to overcome Nemonapride block) [2]: 1.0 mg/kg
